Reference: patent US20220204449A1, “BIASED AGONISTS OF OPIOID RECEPTORS” (ILDONG PHARMACEUTICAL CO., LTD., priority 2020, published 2022)
“Also recorded” adds a separate entry of the source.

Legend:
Type in all cases: cell-based
[1] = molecular target: T1, human δ-opioid receptor, OPRD (Homo sapiens, UniProt P41143); assay: PathHunter β-arrestin 2 assay, OPRD cell line
T1 construct: host or cells: HEK-293 overexpressing β-arrestin2 fused to a β-galactosidase fragment
Text: (§1) Human embryonic kidney 293 (HEK-293) cells which transfected overexpress (3-arrestin2 fused β-galactosidase fragment were purchased from DiscoverX. Human OPRM1 gene (NM 000914.3, encoding human μ-opioid receptor, OPRM) and Human OPRD1 gene (NM 000911.3, encoding human δ-opioid receptor, OPRD) were fused to a pCMV-ProLink plasmid which contains complementary β-galactosidase fragment purchased from DiscoverX. To generate human OPRM1 or OPRD1 expression cell lines, HEK-293 cells were transfected to prepared plasmid and grown in DMEM medium with 10% fetal bovine serum, 150 μg/mL Hygromycin B and 500 μg/mL G418.
(§2) The PathHunter enzyme assay was performed to measure the agonist's capability of β-arrestin 2 pathway activation. When agonists bind to G protein-coupled receptor (GPCR), the receptor pathway is sequentially activated from G protein to β-arrestin 2 recruitment.
(§3) Because […] β-arrestin 2 and C-terminal of GPCR have a fragment of β-galactosidase, recruitment of β-arrestin 2 to GPCR forms the whole β-galactosidase. The functionality of the whole β-galactosidase is detected by chemiluminescence (FlexStation3, Molecular Devices).
(§4) cAMP and β-arrestin assays described above were conducted to decide whether candidate compounds were μ- and/or δ-opioid receptor bias agonists for the G-protein pathway. All assays produced the concentration-response curve, and the curve data was validated by a quality control factor named Z′ factor. Because half-maximal effect concentration (EC50) depends on the population of receptors, the maximal asymptote of the concentration curve was used. Efficacy data of candidates was normalized by comparison to reference agonists DAMGO and SNC80 for OPRM and OPRD.

[2] = molecular target: T2, human μ-opioid receptor, OPRM (Homo sapiens, UniProt P35372); assay: PathHunter β-arrestin 2 assay, OPRM cell line
T2 construct: host or cells: HEK-293 overexpressing β-arrestin2 fused to a β-galactosidase fragment
Text: as §1, §2, §3, §4

[3] = molecular target: T2, human μ-opioid receptor, OPRM; assay: Dominant assay: cAMP assay with/without irreversible antagonist β-FNA, OPRM cell line; conditions: for maximal response on decreasing receptor population (dominant tendency), in words: OPRM cell lines, β-FNA
Text: (§5) To confirm the agonist's efficacy in a nature-like system, we need inactivation of target receptors on the cell membrane. Most cell lines have an abundant target receptor population (also known as spare receptors). Therefore, agonists have more opportunity to constitute agonist-receptor conformation. In this environment, not only full agonists but also partial agonists can reach maximal response.
(§6) If the partial agonist is selected as a full agonist, translational in vivo research will likely fail.
(§7) Non-competitive, irreversible antagonists can be applicable to judge the pharmacological character of agonists because they permanently decrease the receptor population in the cell line system. β-FNA or β-CNA is used as a non-competitive and irreversible antagonist for OPRM, OPRD. Before cAMP assay, cells were incubated with β-FNA or β-CNA for 40 minutes. Afterwards, the procedure is the same.
(§8) If a partial agonist compound acts as a full agonist due to receptor population (pseudo full agonist), it cannot sustain maximal response with reduced receptor population. However, a full agonist compound maintains their maximal response even though increased EC50.

[4] = molecular target: T1, human δ-opioid receptor, OPRD; assay: cAMP accumulation assay (Gi pathway), OPRD cell line; conditions: for OPRD Gi Hill slope: cAMP concentration-response curve; for Emax: normalized to reference agonist SNC80
Text: as §1
(§9) Cyclic Adenosine Monophosphate (cAMP) Accumulation
(§10) The agonist's efficacy to the G protein pathway was determined by changes in the cAMP level using the Cisbio cAMP detection kit. The cells used in cAMP assays are the same cell line as used in the β-arrestin 2 assays. The human opioid receptor activates the Gαi so intracellular cAMP accumulation is inhibited. Cisbio detection kit uses labeled cAMP and antibody. This system proceeds to compete with endogenous cAMP. If Gαi is activated, intracellular cAMP decreases. This assures that labeled-cAMP binds more with the antibody so that time-resolved fluorescence […].
as §4
(§11) The hill slope describes the steepness of the curve. […] We set the appropriate interval of hill slope as 0.8<n<1.5 which maintains the sigmoidal curve shape.

[5] = molecular target: T1, human δ-opioid receptor, OPRD; assay: Dominant assay: cAMP assay with/without irreversible antagonist β-CNA, OPRD cell line; conditions: for maximal response on decreasing receptor population (dominant tendency), in words: OPRD cell lines, β-CNA; for completeness of concentration-response curve, in words: OPRD system
Text: as §5, §6, §7, §8

[6] = molecular target: T2, human μ-opioid receptor, OPRM; assay: cAMP accumulation assay (Gi pathway), OPRM cell line; conditions: for EC50 / OPRM Gi Hill slope / Emax: Table 1; for EC50 / Emax: cAMP; for OPRM Gi Hill slope: cAMP concentration-response curve; for Emax: normalized to reference agonist DAMGO
Text: as §1, §9, §10, §4, §11

[7] = Example 3, Tables 5-7, read-out: OPRD β-ARR2 Emax (%)
[8] = Table 1, normalized to reference agonist SNC80, read-out: OPRD arrestin Emax, %
[9] = Example 3, Tables 5-7, read-out: OPRM β-ARR2 Emax (%)
[10] = Table 1, normalized to reference agonist DAMGO, read-out: OPRM arrestin Emax, %
[11] = addition of β-FNA, Example 3, Tables 5-7, read-out: OPRM Gi β-FNA (+) EC50
[12] = addition of β-FNA, Example 3, Tables 5-7, read-out: OPRM Gi β-FNA (+) Emax (%)
[13] = addition of β-FNA, repeated dominant assay, Example 4, Tables 8-10, read-out: OPRM Gi β-FNA (+) EC50
[14] = addition of β-FNA, repeated dominant assay, Example 4, Tables 8-10, read-out: OPRM Gi β-FNA (+) Emax (%)
[15] = no addition of β-FNA, Example 3, Tables 5-7, read-out: OPRM Gi β-FNA (−) EC50
[16] = no addition of β-FNA, Example 3, Tables 5-7, read-out: OPRM Gi β-FNA (−) Emax (%)
[17] = no addition of β-FNA, repeated dominant assay, Example 4, Tables 8-10, read-out: OPRM Gi β-FNA (−) EC50
[18] = no addition of β-FNA, repeated dominant assay, Example 4, Tables 8-10, read-out: OPRM Gi β-FNA (−) Emax (%)
[19] = Table 1, cAMP, read-out: OPRD Gi EC50
[20] = addition of β-CNA, Example 3, Tables 5-7, read-out: OPRD Gi β-CNA (+) EC50
[21] = addition of β-CNA, Example 3, Tables 5-7, read-out: OPRD Gi β-CNA (+) Emax (%)
[22] = addition of β-CNA, repeated dominant assay, Example 4, Tables 8-10, read-out: OPRD Gi β-CNA (+) EC50
[23] = addition of β-CNA, repeated dominant assay, Example 4, Tables 8-10, read-out: OPRD Gi β-CNA (+) Emax (%)
[24] = no addition of β-CNA, Example 3, Tables 5-7, read-out: OPRD Gi β-CNA (−) EC50
[25] = no addition of β-CNA, Example 3, Tables 5-7, read-out: OPRD Gi β-CNA (−) Emax (%)
[26] = no addition of β-CNA, repeated dominant assay, Example 4, Tables 8-10, read-out: OPRD Gi β-CNA (−) EC50
[27] = no addition of β-CNA, repeated dominant assay, Example 4, Tables 8-10, read-out: OPRD Gi β-CNA (−) Emax (%)

T1 sequence (P41143 whole entry, the tested form may be a part): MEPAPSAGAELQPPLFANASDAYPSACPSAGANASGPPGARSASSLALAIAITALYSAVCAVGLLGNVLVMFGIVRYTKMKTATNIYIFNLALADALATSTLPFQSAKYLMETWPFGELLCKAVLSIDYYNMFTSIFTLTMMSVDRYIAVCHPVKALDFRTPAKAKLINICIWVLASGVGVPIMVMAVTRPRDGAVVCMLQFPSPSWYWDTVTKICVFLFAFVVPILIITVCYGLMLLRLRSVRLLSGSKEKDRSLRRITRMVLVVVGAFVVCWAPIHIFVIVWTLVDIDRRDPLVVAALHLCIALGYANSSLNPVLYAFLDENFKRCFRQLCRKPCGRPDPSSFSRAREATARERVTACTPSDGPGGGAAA
T2 sequence (P35372 whole entry, the tested form may be a part): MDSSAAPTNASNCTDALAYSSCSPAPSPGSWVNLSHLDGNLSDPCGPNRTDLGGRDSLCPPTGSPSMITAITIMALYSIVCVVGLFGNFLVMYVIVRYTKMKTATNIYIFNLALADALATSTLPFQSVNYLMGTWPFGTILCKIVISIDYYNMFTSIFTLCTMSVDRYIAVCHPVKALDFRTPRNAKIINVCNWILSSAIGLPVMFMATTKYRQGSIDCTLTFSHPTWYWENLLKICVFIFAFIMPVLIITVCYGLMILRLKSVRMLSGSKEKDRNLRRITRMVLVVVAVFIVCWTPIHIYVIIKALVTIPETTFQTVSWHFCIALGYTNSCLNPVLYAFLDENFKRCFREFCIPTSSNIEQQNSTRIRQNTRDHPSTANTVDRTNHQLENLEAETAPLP

SMILES: CN1CCc2cc(C(CNC(=O)Nc3ccc(F)cc3)N(C)C)ccc21 (racemic) [Compound 2, 3-[2-(dimethylamino)-2-(1-methyl-2,3-dihydro-1H-indol-5-yl)ethyl]-1-(4-fluorophenyl)urea]
- Emax [1, 7]: 4.66%
- Emax [1, 8]: 4.66%
- Emax [2, 9]: 15.3%
- Emax [2, 10]: 15.3%
- maximal response on decreasing receptor population (dominant tendency), in words [3]: showed a similar pattern as compared to DAMGO; also recorded: resistant to decreasing spare receptors; also recorded: resistant to decreasing spare receptor-induced tendency
- EC50 [3, 11]: 1170 nM
- Emax [3, 12]: 80.1%
- EC50 [3, 13]: 4190 nM
- Emax [3, 14]: 77.4%
- EC50 [3, 15]: 682 nM
- Emax [3, 16]: 98.6%
- EC50 [3, 17]: 1700 nM
- Emax [3, 18]: 103%
- OPRD Gi Hill slope ([4]; Table 1): 1.44
- Emax ([4]; Table 1, cAMP): 92.4%
- EC50 [4, 19]: 1050 nM
- maximal response on decreasing receptor population (dominant tendency), in words [5]: resistant to decreasing spare receptors; also recorded: resistant to decreasing spare receptor-induced tendency
- completeness of concentration-response curve, in words [5]: produced a full concentration-response curve
- EC50 [5, 20]: 2380 nM
- Emax [5, 21]: 78.5%
- EC50 [5, 22]: 6220 nM
- Emax [5, 23]: 70.2%
- EC50 [5, 24]: 4.98 nM
- Emax [5, 25]: 98.9%
- EC50 [5, 26]: 1650 nM
- Emax [5, 27]: 100%
- EC50 [6]: 1880 nM
- OPRM Gi Hill slope [6]: 0.94
- Emax [6]: 109%

SMILES: Cc1ccccc1NC(=O)NCC(c1ccc2c(c1)CCO2)N(C)C (racemic) [Compound 3, 3-[2-(2,3-dihydro-1-benzofuran-5-yl)-2-(dimethylamino)ethyl]-1-(2-methylphenyl)urea]
- Emax [1, 7]: 1.99%
- Emax [1, 8]: 1.99%
- Emax [2, 9]: 12.2%
- Emax [2, 10]: 12.2%
- maximal response on decreasing receptor population (dominant tendency), in words [3]: showed a similar pattern as compared to DAMGO
- EC50 [3, 11]: 1580 nM
- Emax [3, 12]: 91.3%
- EC50 [3, 13]: 22.7 nM
- Emax [3, 14]: 75.5%
- EC50 [3, 15]: 656 nM
- Emax [3, 16]: 97.9%
- EC50 [3, 17]: 36 nM
- Emax [3, 18]: 102%
- OPRD Gi Hill slope ([4]; Table 1): 1.16
- Emax ([4]; Table 1, cAMP): 94.6%
- EC50 [4, 19]: 8370 nM
- completeness of concentration-response curve, in words [5]: curve was cut due to the X-axis limitation
- EC50 [5, 20]: 10600 nM
- Emax [5, 21]: 50.9%
- EC50 [5, 22]: 4450 nM
- Emax [5, 23]: 48.2%
- EC50 [5, 24]: 4350 nM
- Emax [5, 25]: 106%
- EC50 [5, 26]: 3630 nM
- Emax [5, 27]: 100%
- EC50 [6]: 1290 nM
- OPRM Gi Hill slope [6]: 1.48
- Emax [6]: 112%

SMILES: COc1ccsc1CNCC[C@@]1(c2ccccn2)CCOC2(CCCC2)C1 [TRV130, reference compound]
- Emax [1, 7]: 9.6%
- Emax [1, 8]: 9.6%
- Emax [2, 9]: 2.4%
- Emax [2, 10]: 2.41%
- maximal response on decreasing receptor population (dominant tendency), in words [3]: susceptible to decreasing receptor populations than DAMGO; also recorded: attenuates the efficacy; also recorded: more susceptible to decreasing receptor populations than DAMGO
- Emax [3, 12]: 56.3%
- Emax [3, 16]: 89.5%
- EC50 [4]: 2040 nM
- OPRD Gi Hill slope ([4]; Table 1): 1.28
- Emax ([4]; Table 1, cAMP): 63.4%
- EC50 ([5]; OPRD Gi β-CNA (+) EC50 (nM), addition of β-CNA, Example 3, Tables 5-7): 1200 nM
- EC50 ([5]; OPRD Gi β-CNA (−) EC50 (nM), no addition of β-CNA, Example 3, Tables 5-7): 1.49 nM
- maximal response on decreasing receptor population (dominant tendency), in words [5]: more susceptible to decreasing receptor populations than SNC80; also recorded: less resistance to decreasing spare receptors than SNC80
- completeness of concentration-response curve, in words [5]: produced a full concentration-response curve
- Emax [5, 21]: 67.2%
- Emax [5, 25]: 73.9%
- Gi pathway agonism, in words ([6]; OPRM): full agonism
- OPRM Gi Hill slope [6]: 0.35
- Emax [6]: 101%
